Test results as given in patent US20250249110A1, “ANTIMICROBIAL PEPTIDE DERIVATIVE AND USE THEREOF” (SICHUAN UNIVERSITY, priority 2016, published 2025).
Where a SMILES comes first, the peptide text is derived from it. The star is where a group is joined. Succinyl(4-O-cholesteryl) = CC(C)CCC[C@@H](C)[C@H]1CC[C@H]2[C@@H]3CC=C4C[C@@H](OC(=O)CCC(=O)*)CC[C@]4(C)[C@H]3CC[C@]12C

Key:
[1] = system: DC cells; experiment: Uptake of OVA antigen by dendritic cells (flow cytometry); assay type: cell-based, mouse; conditions: 3 h
Protocol: DC cells are the most powerful antigen presenting cells in the body, which can absorb foreign substances, process and present them to T cells to stimulate immune response. DC cells play an important role in T cell immune response and production of T cell dependent antibody. We examined the effect of DP7-C on DC presenting antigen by flow cytometry.
The experimental steps are as follows: • (1) Isolate C57/BL mouse primary bone marrow cells and incubate in the induced medium containing 10 ng/ml of GM-CSF and 10 ng/ml of IL-4 for 5 days. • (2) Add the OVA protein markers FITC, OVA or DP7-C/OVA into DC cell culture, mix well and incubate for 3 h. • (3) Collect the stimulated DC cells, wash with PBS twice, re-suspend the cells in 300 μL of PBS, and perform flow cytometry.

[2] = system: dendritic cells (DC); experiment: Maturation of dendritic cells (flow cytometry); assay type: cell-based, mouse; conditions: 16 h incubation; vs NS group, statistically significant
Protocol: The maturation of dendritic cells (DC) largely determines the immune response or tolerance of the body. […] Therefore, we detected the effect of DP7-C adjuvant on dendritic cell maturation by flow cytometry.
The experimental steps are as follows: • (1) Isolate C57/BL mouse primary bone marrow cells and incubate in the induced medium containing 10 ng/ml of GM-CSF and 10 ng/ml of IL-4 for 5 days. • (2) Add the DP7-C adjuvant into DC cell culture, mix well, and incubate for 16 h. • (3) Collect the stimulated DC cells, wash them twice with PBS, re-suspend the cells in 100 μL of PBS, add 1 μL of anti-mouse CD16/CD32, and block at 4° C. for 30 min. • (4) Wash with PBS for 3 times, add 1 μg of FITC-anti-CD80, APC-anti-CD86 and PE-anti-MHC-II, incubate at room temperature for 30 min, wash PBS for 3 times and re-suspend in 200 μL of PBS for flow cytometry.

[3] = system: C26 mouse colon cancer peritoneal metastasis; experiment: C26 mouse colon cancer peritoneal metastasis model; assay type: in vivo
Protocol: In order to further characterize the application potential of DP7-C micelles in tumor therapy, we established a C26 mouse colon cancer peritoneal metastasis model and used DP7-C to transmit anti-VEGF siRNA therapeutic genes for therapeutic research. • (1) Establishment of abdominal metastasis model: on day 0, female BALB/c mice aged 6-8 weeks are intraperitoneally injected with 0.1 ml of cell suspension (containing about 1×10^5 C26 cells). • (2) On day 3, mice are randomly divided into 4 groups, 8 mice for each group, and are labeled. • (3) Four groups of mice are intraperitoneally injected with 10 doses of normal saline (blank control group), blank DP7-C micelle (17.5 μg), DP7-C/no-sense control siRNA (Scramble siRNA) complex (17.5 μg/3.5 μg) or DP7-C/VEGF siRNA complex (17.5 μg/3.5 μg) respectively. • (4) On day 20, when the mice in the control group are already very weak, all the mice are killed by cervical dislocation; the tumor tissues in the abdominal cavity as well as the heart, liver, spleen, lung and kidney tissues are immediately collected, weighed and analyzed. The ascites of each group of mice is also collected and measured, and CD31 immunohistochemical staining is performed on tumor tissues of each experimental group. The collected heart, liver, spleen, lung and kidney tissues are analyzed by HE staining.

[4] = system: Pseudomonas aeruginosa with fluorescence (PAO1-GFP); experiment: Abdominally infected zebrafish model; assay type: in vivo; conditions: DP7-C 1 mg/mL; green fluorescence at 3 h, 8 h, 18 h
Protocol: Next, we established an abdominally infected zebrafish model through Pseudomonas aeruginosa with fluorescence (PAO1-GFP) to further verify the anti-infection effect of DP7-C.
The male and female AB wild zebrafish were mated according to the mating and breeding procedures. After spawning, the roe was collected, placed in an incubator at 28° C. and incubated in the seawater containing PTU. The seawater containing PTU was changed once a day. When zebrafish was incubated for 48 h, Pseudomonas aeruginosa with fluorescence (PAO1-GFP) diluted with DP7-C and normal saline was intraperitoneally injected, and photographs were taken at 3 h, 8 h and 18 h under a fluorescence microscope to observe the growth of PAO1-GFP in the abdomen of zebrafish.

[5] = system: B16 metastatic melanoma in the lung; experiment: B16 mouse model of metastatic melanoma in the lung; assay type: in vivo
Protocol: In order to further characterize the application potential of DP7-C micelles in tumor therapy, we established a B16 mouse model of metastatic melanoma in the lung and used DP7-C to transmit anti-VEGF siRNA therapeutic genes for therapeutic research. • (1) On day 0, female C57 mice aged 6-8 weeks are […] inoculated with 0.1 mL of cell suspension (containing about 2.5×10^5 B16 cells). • (2) On day 3, mice are randomly divided into 4 groups, 8 mice for each group, and are labeled. • (3) Mice are injected with 7 doses of normal saline (blank control group), blank DP7-C micelle (60 μg), DP7-C/no-sense control siRNA complex (60 μg/12 μg) or DP7-C/VEGF siRNA complex (60 μg/12 μg) respectively through tail veins. • (4) On day 20, when the mice in the control group are already very weak, all the mice are killed by cervical dislocation; the tumor tissues in the lung as well as the heart, liver, spleen, lung and kidney tissues are immediately collected, weighed and analyzed. The collected heart, liver, spleen, lung and kidney tissues are analyzed by HE staining.

[6] = system: YAC-1 cells; experiment: NK cell killing activity after immunization (LDH release); assay type: cell-based, mouse; conditions: splenic lymphocytes 48 h after primary immunization
Protocol: Innate immunity plays an important role in anti-tumor immunity. We detected the killing activity of mouse NK cells after immunization with DP7-C adjuvant.
After 48 h of primary immunization, kill the mice by the cervical dislocation, and isolate splenic lymphocyte from the lymphocyte separation medium as effector cells.
Resuscitate and incubate YAC-1 cells, transfer one day before the experiment, and keep 2×10^6/20 ml. Stain with trypan blue. Available when activity is more than 95%.
• (1) Add target cells and effector cells into a 96-well plate (ratio of target cells to effector cells: 1:25, 1:50, 1:100, 1:200 as per 10,000 target cells per well) and incubate at 37° C. for 4 h. • (2) Centrifuge at 250 g, and take supernatant for LDH releasing test.

[7] = intraperitoneal injection, 10 doses, day 20
[8] = tail vein injection, 7 doses, day 20

SMILES: CC[C@H](C)[C@H](NC(=O)[C@H](CCCNC(=N)N)NC(=O)[C@H](Cc1c[nH]c2ccccc12)NC(=O)[C@H](CCC(N)=O)NC(=O)[C@@H](NC(=O)CCC(=O)O[C@H]1CC[C@@]2(C)C(=CC[C@H]3[C@@H]4CC[C@H]([C@H](C)CCCC(C)C)[C@@]4(C)CC[C@@H]32)C1)C(C)C)C(=O)N[C@@H](CCCNC(=N)N)C(=O)N[C@H](C(=O)N[C@@H](C)C(=O)N[C@H](C(=O)N[C@H](C(=O)N[C@@H](CCCNC(=N)N)C(=O)N[C@@H](CCCCN)C(N)=O)[C@@H](C)CC)C(C)C)C(C)C [DP7-C, Chol-suc-VQWRIRVAVIRK-NH2] ({Succinyl(4-O-cholesteryl)}-VQWRIRVAVIRK-NH2)
- uptake of antigen by DC cells ([1]; 2.5 μg/ml): significantly increase
- uptake of OVA by DC cells ([1]; 40 μg/ml): slightly enhanced
- expression of MHC II, CD80 and CD86 [2]: increased
- HE staining of major organ tissues ([3]; heart, liver, spleen, lung, kidney): no significant pathological changes
- average tumor weight [3, 7]: 7.94 ± 0.53 g
- volume of ascites (printed as average tumor weight) [3, 7]: 1.17 ± 0.51 mL
- growth rate of PAO1-GFP in zebrafish abdominal cavity [4]: much lower than that of NS group
- HE staining of major organ tissues ([5]; heart, liver, spleen, kidney): no significant pathological changes
- average number of tumor nodes [5, 8]: 132±22
- average weight of lung tissue [5, 8]: 0.41 ± 0.1 g
- NK cell killing activity [6]: slightly strong NK cell killing activity
